The test system of experiment [1] is genome-wide off-target sites. The following applies: genome-wide assessment of off-target activity; cited from earlier work.
For experiment [2], the system named is target sites with TYCV/CCCC and TATV PAMs. Particulars: in vitro and in human cells; cited from earlier work.
For another experiment, the system named is Factor VII. The following applies: LNP siRNA systems containing the lipid; hepatocytes in vivo; cited from earlier work.
Experiment [3] relates to essential genes. The experiment is described as follows: AsCas12a tiling library pooled dropout (viability) screens. The experiment is classed as cell-based, human. On the set-up: AUC after selecting top half of guides by Seq-DeepCpf1 score: unit not given beside the values. The following applies: for guides targeting a TTTT site observed to be active / precision recall area under curve (AUC): A375 viability data; for guides targeting a TTTT site observed to be active: activity cutoff 5th percentile of guides targeting control genes; for precision recall area under curve (AUC): essential gene guides true positives, control gene guides false positives, TTTT PAMs excluded for AsCas12a; for AUC after selecting top half of guides by Seq-DeepCpf1 score: essential and non-essential guides of the tiling screens; for guides active, all guides / guides active, quartile with the highest Seq-DeepCpf1 prediction scores: guides targeting essential genes, cutoff 5th percentile of cell surface control guides. From the text: The AsCas12a library was cloned into a modified version of lentiGuide, pRDA_052, which expresses the guide from a U6 promoter and confers puromycin resistance.

Experiment [4] relates to essential genes. The experiment is described as follows: Mismatched guide library off-target dropout screen in A375 cells. Particulars: cutoff 5th percentile of controls.
Method: Cell lines stably expressing Cas12a were transduced with guides cloned into the pRDA_052 vector in two biological replicates at a low MOI (˜0.5). Transductions were performed with enough cells to achieve a representation of at least 500 cells per guide per replicate, taking into account a 30-50% transduction efficiency. Throughout the screen, cells were split at a density to maintain a representation of at least 500 cells per guide, and cell counts were taken at each passage to monitor growth. Puromycin selection was added 2 days post-transduction and was maintained for 5-7 days. After puromycin selection was complete, each replicate was divided into untreated (i.e. no drug/dropout arms) and small molecule treatment arms, each at a representation of at least 500 cells per guide.
In order to assess the off-target tolerance of AsCas12a, a library of guides intentionally mismatched to their target was constructed. […] Screens were performed in duplicate in A375 cells with dropout, vemurafenib, and 6-thioguanine arms in cells stably expressing 2×NLS-Cas12a and enCas12a.
Experiment [5] relates to target sites preceded by a PAM. The experiment is described as follows: Determination of PAM (plasmid depletion in E. coli). The experiment is classed as cell-based. The following applies: N is A/C/G or T. From the text:
Determination of PAM can be ensured as follows This experiment closely parallels similar work in E. coli for the heterologous expression of StCas9 (Sapranauskas, R. et al. Nucleic Acids Res 39, 9275-9282 (2011)). Applicants introduce a plasmid containing both a PAM and a resistance gene into the heterologous E. coli, and then plate on the corresponding antibiotic. If there is DNA cleavage of the plasmid, Applicants observe no viable colonies.
In further detail, the assay is as follows for a DNA target. Two E. coli strains are used in this assay. One carries a plasmid that encodes the endogenous effector protein locus from the bacterial strain. The other strain carries an empty plasmid (e.g. pACYC184, control strain). All possible 7 or 8 bp PAM sequences are presented on an antibiotic resistance plasmid (pUC19 with ampicillin resistance gene). The PAM is located next to the sequence of proto-spacer 1 (the DNA target to the first spacer in the endogenous effector protein locus). Two PAM libraries were cloned. One has an 8 random bp 5′ of the proto-spacer (e.g., total of 65536 different PAM sequences=complexity). The other library has 7 random bp 3′ of the proto-spacer (e.g. total complexity is 16384 different PAMs). Both libraries were cloned to have in average 500 plasmids per possible PAM. […]

A further experiment deals with dystrophin. The following applies: 48 weeks; cited from earlier work.
The next experiment deals with CD47, CD63, and B2M. The experiment can be described thus: Triple knockout with Cas12a, flow cytometry of cell surface markers in A375 cells. The experiment is classed as cell-based, human. Particulars: 6 multiplexed arrays, three timepoints, irrespective of guide position. The method, then: A375 cells stably expressing enCas12a were transduced with 6 triple knockout arrays, 3 single knockout constructs, and one empty control vector. Two days after transduction, cells were selected with puromycin ([…]), and passaged on puromycin for 7 days. Cells were visualized by flow cytometry on the BDAccuri C6 Sampler system 9, 18, and 25 days post infection. […] Flow cytometry data were analyzed using FlowJo (v10). […] Zero, single, double, and triple knockout populations were quantified using boolean gating in FlowJo.
Using these guides, 6 multiplexed arrays with all possible guide orientations were generated (FIG. 21A-21B). Three single guide constructs, and one empty vector control, and used flow cytometry were also included (FIGS. 31A-31E) to quantify the fraction of cells that were edited or not for all three markers. […] In this internally-controlled assay, EGFP labels cells without enCas12a (and thus no dsDNA breaks) and the fraction of enCas12a-positive, EGFP-negative cells over time was measured by flow cytometry (FIG. 33A). […]

For another experiment, the system named is MAPK1-MAPK3. The experiment is described as follows: Synthetic lethal (SynLet) multiplexed guide pair screen. The experiment is classed as cell-based, human. Particulars: MAPK1-MAPK3, OVCAR8 cells. From the text:
For a construct with the ordered elements guide1, DR, guide2, it can be said that the
[formula] where m and β are a fitted slope and intercept. The residual then is the difference between the observed and expected LFCs. Filtering SynLet Libraries
To assess the effectiveness of multiplexing across numerous endogenous genes, a library targeting synthetically lethal (SynLet) gene pairs was designed. […] For As Cas12a, a second guide needed only 43 additional nucleotides. […] Furthermore, the proximity of guides in the enCas12a construct made sequencing and downstream analyses easier.
For each gene in a given pair, up to 20 guides were picked at random, 15 and 5 of which targeted TTTV and TTTT PAMs respectively (FIG. 15A). Pairs were screened in both orientations and the top three direct repeats were used. Thus, each gene pair was assessed with up to 2,400 unique constructs (20 guides×20 guides×2 orientations×3 DRs). […]
To quantitate synergies between guide pairs, an expected phenotype was first calculated by determining the average LFC of each targeting guide when it was coupled with controls (FIG. 29A), and then summing the average LFC for the two guides. […] Finally, the residual from the fit line for all constructs were calculated, where a negative residual indicates a synthetic lethal pair. […]

For experiment [6], the system named is essential genes. The experiment is described as follows: PAM identification by analysis of essential genes in a dropout screen. It counts as cell-based. The following applies: cell lines A375, MelJuSo, A549, OVCAR8, and 7860.

As for “S542R/K548V/N552R: variant of AsCpf1 engineered with the mutations S542R/K548V/N552R”, in experiment [1], the DNA targeting specificity result is “retain a high level of DNA targeting specificity”. Besides, the “PAMs of target sites that can be cleaved” value in experiment [2] is on record as “TATV”.

For `CCCCC/C=C\C/C=C\CCCCCCCC(=O)OCC(CN(C)C)OC(=O)CCCCCCC/C=C\C/C=C\CCCCC` (stereo not shown) [DLinDAP, 1,2-dilineoyl-3-dimethylammonium-propane], the “potency order of gene silencing” value in the experiment with Factor VII was “DLinKC2-DMA>DLinKDMA>DLinDMA>>DLinDAP”.

On to “2×NLS-Cas12a: 2×-NLS-Cas12a lentiviral expression construct”, for which, in the experiment on essential genes [3], the “guides targeting a TTTT site observed to be active” value amounted to 7%; the “precision recall area under curve (AUC)” value amounted to 0.84; the “AUC after selecting top half of guides by Seq-DeepCpf1 score” value is reported as 0.94; the “guides active, all guides” value is listed as 47%. Further, the “guides active, quartile with the highest Seq-DeepCpf1 prediction scores” value with essential genes [3] was 92%. In the experiment with essential genes [4], the “double mismatch guides active” value was 9%, the “perfect match guides scoring as active” value turned out to be 94% and the “single mismatch guides active” value is 28%.

As to AsCpf1: Acidaminococcus sp. BV3L6 Cpf1, in [5], the “PAM preceding the target sites that can be cleaved” value was “TTTV”.

For `CCCCC/C=C\C/C=C\CCCCCCCCC1(CCCCCCCC/C=C\C/C=C\CCCCC)OCC(CCN(C)C)O1` (stereo not shown) [DLinKC2-DMA, 1,2-dilinoleyl-4-(2-dimethylaminoethyl)-[1,3]-dioxolane], the “potency order of gene silencing” value with Factor VII is listed as “DLinKC2-DMA>DLinKDMA>DLinDMA>>DLinDAP”.

Regarding “S542R/K607R: variant of AsCpf1 engineered with the mutations S542R/K607R”, the DNA targeting specificity entry in experiment [1] is listed as “retain a high level of DNA targeting specificity”. Besides, in experiment [2], the “PAMs of target sites that can be cleaved” value is given as “TYCV/CCCC”.

Turning to “enCas12a: enCas12a lentiviral expression construct; AsCas12a comprising E174R/S542R/K548R mutations”, in the experiment on essential genes [3], the “guides targeting a TTTT site observed to be active” value was found to be 57%; the “precision recall area under curve (AUC)” value came to 0.96; the “AUC after selecting top half of guides by Seq-DeepCpf1 score” value is 0.97; the “guides active, all guides” value is recorded as 80%. Moreover, the “guides active, quartile with the highest Seq-DeepCpf1 prediction scores” value in the experiment with essential genes [3] is on record as 94%. In the experiment with essential genes [3] (EEF2 guides of the tiling library), the “EEF2 guides targeting TTTN active” value is reported as 62%. Also, the “non-canonical tier 1 guides active, quartile with highest Seq-DeepCpf1 scores” value in the experiment on essential genes [3] (TTTC substituted in silico for the actual PAM) is reported as 93%. In addition, the “EEF2 guides targeting the other tier 1 PAMs active” value in the experiment with essential genes [3] (non-canonical (non-TTTN) PAMs) was found to be 68%. In addition, in the experiment with essential genes [4], the “double mismatch guides active” value came out at 16%, the “perfect match guides scoring as active” value was 91% and the “single mismatch guides active” value came out at 54%.

For “1×NLS-Cas12a: lx-NLS-Cas12a lentiviral expression construct; Addgene 84750 [reference compound]”, in the experiment on essential genes [3], the “guides targeting a TTTT site observed to be active” value amounted to 7% and the “precision recall area under curve (AUC)” value is listed as 0.61.

For “1,2-dilinoleyloxy-keto-N,N-dimethyl-3-aminopropane [DLinKDMA]”, the “potency order of gene silencing” value in the experiment with Factor VII is on record as “DLinKC2-DMA>DLinKDMA>DLinDMA>>DLinDAP”.

On to Eteplirsen, for which the “dystrophin positive fibers compared to baseline (average)” value with dystrophin is 47%.

For the molecule `CCCCC/C=C\C/C=C\CCCCCCCCOCC(CN(C)C)OCCCCCCCC/C=C\C/C=C\CCCCC` (stereo not shown) [DLinDMA, 1,2-dilinoleyloxy-3-N,N-dimethylaminopropane], the “potency order of gene silencing” value in the experiment with Factor VII is “DLinKC2-DMA>DLinKDMA>DLinDMA>>DLinDAP”.

Turning to “AsCas12a: Cas12a (Cpf1) effector used for the screens, here in multiplexed guide arrays”, the “cells showing editing at all three loci” value with CD47, CD63, and B2M is recorded as “approximately 70%”. For the same molecule, in the experiment with MAPK1-MAPK3, the “guide pairs scored as synthetic lethal” value is given as 98%. Further, the “protospacer adjacent motif (PAM)” value with essential genes [6] is reported as “TTTV”.

Values taken from patent US12264323B2, “CRISPR CPF1 direct repeat variants” (THE BROAD INSTITUTE, INC., priority 2018, dated 2025).
